Source: ChEMBL document CHEMBL5543174, “A Nonbactericidal Anionic Antimicrobial Peptide Provides Prophylactic and Therapeutic Efficacies against Bacterial Infections in Mice by Immunomodulatory-Antithrombotic Duality” (J Med Chem, 2024)
Activity calls are given as the source filed them. The calls are words filed in the database; no cut-off is given here.

Legend:
Escherichia coli [1] = experiment: Antibacterial activity against Escherichia coli ATCC 25922 infected in C57BL/6 mouse assessed as reduction in TNF-alpha level in peritoneal fluid at 10 mg/kg,ip administrated 5 hrs after bacterial infection measured after 24 hrs by ELISA; format: functional, organism-based; details: time 19.0 hrs
Staphylococcus aureus [2] = experiment: Antibacterial activity against Staphylococcus aureus ATCC 25923 infected in C57BL/6 mouse assessed as reduction in IL-6 level in serum at 10 mg/kg,ip pre-administrated 5 hrs before bacterial infection measured after 24 hrs by ELISA; format: functional, organism-based; details: time 29.0 hrs
[3] = system: Peritoneal macrophage cell; experiment: Induction of chemotaxis in mouse Peritoneal macrophage assessed as increase in macrophage migration at 25 to 100 ug/ml incubated for 8 hrs by crystal violet staining based direct transwell assay; format: functional, cell-based; details: dose 25-100 µg/ml
Escherichia coli [4] = experiment: Antibacterial activity against Escherichia coli ATCC 25922 infected in C57BL/6 mouse assessed as reduction in IL-1beta level in serum at 10 mg/kg,ip administrated 5 hrs after bacterial infection measured after 24 hrs by ELISA; format: functional, organism-based; details: time 19.0 hrs
Mus musculus [5] = experiment: Induction of chemotaxis in C57BL/6 mouse assessed as upregulation of MCP-1 expression in peritoneal lavage at 10 mg/kg,ip administration measured at 5 to 24 hrs by ELISA; format: functional, organism-based; details: time 5-24 hrs
[6] = system: Peritoneal macrophage cell; experiment: Induction of chemotaxis in mouse Peritoneal macrophage assessed as increase in macrophage migration at 100 ug/ml preincubated with PTX for 30 mins followed by compound addition measured after 8 hrs by crystal violet staining based indirect transwell assay; format: functional, cell-based; details: dose 100.0 µg/ml
Neutrophil [7] = experiment: Induction of phagocytosis in mouse bone marrow derived neutrophil cultured with CFSE-labeled Carbapenem-resistant Escherichia coli incubated for 1.5 hrs followed by bacterial exposure for 1 hr by flow cytometry; format: functional, cell-based; details: time 2.5 hrs
Escherichia coli [8] = experiment: Antibacterial activity against Escherichia coli ATCC 25922 infected in C57BL/6 mouse assessed as increase in survival rate at 10 mg/kg,ip administrated 5 hrs after bacterial infection measured after 7 days; format: functional, organism-based; details: time 7.0 day
Escherichia coli [9] = experiment: Antibacterial activity against Escherichia coli ATCC 25922 infected in C57BL/6 mouse assessed as reduction in IL-1beta level in serum at 10 mg/kg,ip pre-administrated 5 hrs before bacterial infection measured after 24 hrs by ELISA; format: functional, organism-based; details: time 29.0 hrs
Mus musculus [10] = experiment: Anticoagulation activity in mouse infected with Carbapenem-resistant Escherichia coli assessed as increase in plasma TFPI expression at 10 mg/kg,ip pre-administrated 5 hrs before bacterial infection measured after 24 hrs by ELISA; format: functional, organism-based; details: time 29.0 hrs
Staphylococcus aureus [11] = experiment: Antimicrobial activity against Methicillin-resistant Staphylococcus aureus assessed as inhibition of microbial growth at <= 200 ug/ml incubated for 18 hrs by micro-broth dilution method; format: functional, organism-based; details: dose <= 200.0 µg/ml
Staphylococcus aureus [12] = experiment: Antibacterial activity against Methicillin-resistant Staphylococcus aureus infected in C57BL/6 mouse with cyclophosphamide-induced neutrophil depletion model assessed as reduction of bacterial burden in peritoneal cavity at 10 mg/kg,ip administrated 5 hrs after bacterial infection measured after 24 hrs; format: functional, organism-based; details: time 19.0 hrs
Staphylococcus aureus [13] = experiment: Antibacterial activity against Staphylococcus aureus ATCC 25923 infected in C57BL/6 mouse assessed as reduction in bacterial load at 10 mg/kg,ip pre-administrated 5 hrs before bacterial infection; format: functional, organism-based
Neutrophil [14] = experiment: Induction of ROS production in mouse bone marrow derived neutrophil at 25 to 100 ug/ml incubated for 6 hrs by DCFA-DA staining based flow cytometry; format: functional, cell-based; details: dose 25-100 µg/ml
[15] = system: Peritoneal macrophage cell; experiment: Induction of phagocytosis in mouse Peritoneal macrophage assessed as increase in neutral red dye uptake by measuring optical density absorbance at 50 ug/ml incubated for 24 hrs followed by dye addition measured after 4 hrs by absorbance based assay (reference value: 0.089); format: functional; details: dose 50 µg/ml; time 28 hrs
Lymphocyte = experiment: Immunomodulatory activity in mouse spleen derived lymphocyte assessed as increase in lymphocyte proliferation at < 200 ug/ml incubated for 24 hrs by CCK-8 assay; format: functional, cell-based; details: dose < 200.0 µg/ml
Mus musculus [16] = experiment: Anticoagulation activity in mouse assessed as change in plasma APC expression at 10 mg/kg,ip measured after 24 hrs by ELISA; format: functional, organism-based
Escherichia coli [17] = experiment: Antibacterial activity against Escherichia coli ATCC 25922 infected in C57BL/6 mouse assessed as reduction in bacterial load at 10 mg/kg,ip administrated 5 hrs after bacterial infection; format: functional, organism-based
Escherichia coli [18] = experiment: Antibacterial activity against Carbapenem-resistant Escherichia coli infected in C57BL/6 mouse with cyclophosphamide-induced neutrophil depletion model assessed as decrease in bacterial burden in peritoneal cavity at 10 mg/kg,ip pre-administrated 5 hrs before bacterial infection measured after 24 hrs; format: functional, organism-based; details: time 29.0 hrs
[19] = system: Peritoneal macrophage cell; experiment: Induction of phagocytosis in mouse Peritoneal macrophage assessed as increase in neutral red dye uptake by measuring optical density absorbance at 100 ug/ml incubated for 24 hrs followed by dye addition measured after 4 hrs by absorbance based assay (reference value: 0.089); format: functional; details: dose 100 µg/ml; time 28 hrs
Escherichia coli [20] = experiment: Antibacterial activity against Carbapenem-resistant Escherichia coli infected in C57BL/6 mouse assessed as reduction in inflammatory injury in lung at 10 mg/kg,ip pre-administrated 5 hrs before bacterial infection measured after 24 hrs by hematoxylin and eosin staining based analysis; format: functional, organism-based; details: time 29.0 hrs
Staphylococcus aureus [21] = experiment: Antibacterial activity against Methicillin-resistant Staphylococcus aureus infected in C57BL/6 mouse assessed as reduction in TNF-alpha level in serum at 10 mg/kg,ip pre-administrated 5 hrs before bacterial infection measured after 24 hrs by ELISA; format: functional, organism-based; details: time 29.0 hrs
Staphylococcus aureus [22] = experiment: Antibacterial activity against Staphylococcus aureus ATCC 25923 infected in C57BL/6 mouse assessed as reduction in TNF-alpha level in peritoneal fluid at 10 mg/kg,ip administrated 5 hrs after bacterial infection measured after 24 hrs by ELISA; format: functional, organism-based; details: time 19.0 hrs
Staphylococcus aureus [23] = experiment: Antibacterial activity against Staphylococcus aureus ATCC 25923 infected in C57BL/6 mouse assessed as reduction in inflammatory injury in lung at 10 mg/kg,ip administrated 5 hrs after bacterial infection measured after 24 hrs by hematoxylin and eosin staining based analysis; format: functional, organism-based; details: time 19.0 hrs
Staphylococcus aureus [24] = experiment: Antibacterial activity against Methicillin-resistant Staphylococcus aureus infected in C57BL/6 mouse with clodronate liposome-induced monocyte depletion model assessed as reduction of bacterial burden in peritoneal cavity at 10 mg/kg,ip pre-administrated 5 hrs before bacterial infection measured after 24 hrs; format: functional, organism-based; details: time 29.0 hrs
Peritoneal macrophage [25] = experiment: Induction of chemotaxis in mouse Peritoneal macrophage assessed as upregulation of IL-6 expression at 25 to 100 ug/ml incubated for 6 hrs by ELISA; format: functional, cell-based; details: dose 25-100 µg/ml
Mus musculus [26] = experiment: Anticoagulation activity in mouse infected with Methicillin-resistant Staphylococcus aureus assessed as increase in plasma APC expression at 10 mg/kg,ip pre-administrated 5 hrs before bacterial infection measured after 24 hrs by ELISA; format: functional, organism-based; details: time 29.0 hrs
Peritoneal macrophage [27] = experiment: Immunomodulatory activity in mouse Peritoneal macrophage assessed as decrease in LTA-induced TNF-alpha production at 25 to 100 ug/ml incubated for 6 hrs by ELISA; format: functional, cell-based; details: dose 25-100 µg/ml
Neutrophil [28] = experiment: Induction of degranulation in mouse bone marrow derived neutrophil assessed as increase in MMP-9 release at 25 to 100 ug/ml incubated for 6 hrs by ELISA; format: functional, cell-based; details: dose 25-100 µg/ml
Peritoneal macrophage [29] = experiment: Immunoregulatory activity in mouse Peritoneal macrophage assessed as upregulation of p65 phosphorylation incubated for 1 hr by Western blotting analysis; format: functional, cell-based
Staphylococcus aureus [30] = experiment: Antibacterial activity against Staphylococcus aureus ATCC 25923 infected in C57BL/6 mouse assessed as reduction in IL-1beta level in serum at 10 mg/kg,ip pre-administrated 5 hrs before bacterial infection measured after 24 hrs by ELISA; format: functional, organism-based; details: time 29.0 hrs

Q: What does the source list for CC[C@H](C)[C@H](NC(=O)[C@@H]1CSSC[C@H](NC(=O)[C@H](CCC(=O)O)NC(=O)[C@@H](NC(=O)[C@H](CCCCN)NC(=O)[C@H](Cc2c[nH]cn2)NC(=O)[C@@H](NC(=O)[C@H](CCCCN)NC(=O)[C@H](CCC(=O)O)NC(=O)[C@H](C)NC(=O)[C@H](CCC(=O)O)NC(=O)[C@H](CCC(=O)O)NC(=O)[C@H](CCC(=O)O)NC(=O)[C@H](C)N)[C@@H](C)O)[C@@H](C)O)C(=O)N[C@@H](CC(C)C)C(=O)N[C@@H](CCC(=O)O)C(=O)N1)C(=O)N[C@@H](Cc1ccccc1)C(=O)N[C@H](C(=O)N[C@@H](CC(C)C)C(=O)N[C@@H](CC(C)C)C(=O)N1CCC[C@H]1C(=O)N1CCC[C@@H]1C(=O)N[C@H](C)C(=O)O)[C@@H](C)O?
A: Activity (Escherichia coli [1]): Active; Activity (Staphylococcus aureus [2]): Active; Activity [3]: inactive; Activity (Escherichia coli [4]): Active; Activity (Mus musculus [5]): inactive; Activity [6]: inactive; Activity (Neutrophil [7]): Dose-Dependent Effect; Activity (Escherichia coli [8]): Active; Activity (Escherichia coli [9]): Active; Activity (Mus musculus [10]): Active; Activity (Staphylococcus aureus [11]): inactive; Activity (Staphylococcus aureus [12]): inactive; Activity (Staphylococcus aureus [13]): Active; Activity (Neutrophil [14]): inactive; OD [15]: 0.102; Activity (Lymphocyte): inactive; Activity (Mus musculus [16]): inactive; Activity (Escherichia coli [17]): Active; Activity (Escherichia coli [18]): inactive; OD [19]: 0.111; Activity (Escherichia coli [20]): Active; Activity (Staphylococcus aureus [21]): Active; Activity (Staphylococcus aureus [22]): Active; Activity (Staphylococcus aureus [23]): Active; Activity (Staphylococcus aureus [24]): inactive; Activity (Peritoneal macrophage [25]): inactive; Activity (Mus musculus [26]): Active; Activity (Peritoneal macrophage [27]): inactive; Activity (Neutrophil [28]): inactive; Activity (Peritoneal macrophage [29]): Dose-Dependent Effect; Activity (Staphylococcus aureus [30]): Active
